The target of data set [1] is VMAT2 (human platelet homogenate) (Homo sapiens (Human), UniProt Q05940). In words: Human VMAT2 Ki, slightly modified competition binding procedure (Table 11).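 Note: competition binding with 90 min incubation at 25 °C, after which filter-retained radioligand was measured by scintillation counting.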 As to conditions: 10 nM 3H-dihydrotetrabenazine.
Method: Following incubation at 25° C. for 90 minutes, bound radioligand was collected by rapid filtration onto GF/B glass fiber filters using a Unifilter-96 Harvester (PerkinElmer). Filter plates were pre-treated with 0.1% polyethylenimine and allowed to dry overnight, and following harvesting the filter plates were washed with 800 d VMAT2 binding buffer. Bound radioligand was quantified by scintillation counting using a Topcount NXT (PerkinElmer).
The nature of data set [2]: In vitro human intestinal S9 hydrolysis assay (formation of compound 1-1). The note with it: human intestinal S9, 1 uM, 37° C., up to 60 minutes.
Method: Compounds (1 uM) were incubated with pooled intestinal S9 subcellular preparations (0.5 mg/mL total protein) from SD rats and humans without the addition of protease inhibitor phenylmethylsulfonylflouride. Incubations were carried out in a potassium phosphate buffer (50 mM). All concentrations were relative to the final incubation volume of 125 uL. Incubations were conducted at 37° C. for 0, 5, 10, 20, 40 and 60 minutes in a water bath and terminated by rapid mixing with 150 uL of ice-cold acetonitrile containing 1% formic acid. Internal standard was added and proteins were precipitated and removed by centrifugation prior to LC/MS analysis.

The results in this text go back to US11053242B2, “[9,10-dimethoxy-3-(2-methylpropyl)-1H,2H,3H,4H,6H,7H,11BH-pyrido-[2,1-a]isoquinolin-2-yl]methanol and compounds, compositions and methods relating thereto” (Neurocrine Biosciences, Inc., priority 2015, dated 2021).

Some results are limits rather than exact numbers.

Chain of VMAT2 (human platelet homogenate) (Q05940 whole entry): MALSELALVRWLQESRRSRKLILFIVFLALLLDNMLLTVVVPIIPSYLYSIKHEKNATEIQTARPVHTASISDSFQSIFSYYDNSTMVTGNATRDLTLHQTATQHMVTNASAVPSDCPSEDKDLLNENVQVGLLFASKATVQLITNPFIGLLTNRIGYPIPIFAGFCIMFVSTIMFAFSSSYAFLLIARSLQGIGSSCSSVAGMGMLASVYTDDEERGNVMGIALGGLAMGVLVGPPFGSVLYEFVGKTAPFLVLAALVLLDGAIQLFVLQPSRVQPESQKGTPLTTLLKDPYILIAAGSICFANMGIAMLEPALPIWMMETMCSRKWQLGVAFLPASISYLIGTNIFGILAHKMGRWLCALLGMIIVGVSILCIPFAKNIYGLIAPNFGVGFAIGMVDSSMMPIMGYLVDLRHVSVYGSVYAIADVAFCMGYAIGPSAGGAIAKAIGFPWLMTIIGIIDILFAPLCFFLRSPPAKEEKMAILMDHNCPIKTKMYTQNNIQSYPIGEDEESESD

Consider `COc1cc2c(cc1OC)[C@H]1C[C@@H](COC(=O)CC(C)(C)CC(=O)O)[C@H](CC(C)C)CN1CC2` [Compound 3-1, 5-{[(2R,3S,11bR)-9,10-dimethoxy-3-(2-methylpropyl)-1H,2H,3H,4H,6H,7H,11bH-pyrido[2,1-a]isoquinolin-2-yl]methoxy}-3,3-dimethyl-5-oxopentanoic acid], for which the Ki (as a rule, the equilibrium dissociation constant of an inhibitor or competing ligand from its target) in data set [1] was greater than 500 nM. Besides, the “S9 Assay (ability to form compound 1-1)” value in data set [2] is on record as “+”.

In data set [1], `COc1cc2c(cc1OC)[C@H]1C[C@@H](COC(=O)CC(C)CC(=O)O)[C@H](CC(C)C)CN1CC2` (stereo partly drawn) [Compound 3-3, 5-{[(2R,3S,11bR)-9,10-dimethoxy-3-(2-methylpropyl)-1H,2H,3H,4H,6H,7H,11bH-pyrido[2,1-a]isoquinolin-2-yl]methoxy}-3-methyl-5-oxopentanoic acid] came in with a Ki of 10 to 500 nM. Besides, the “S9 Assay (ability to form compound 1-1)” value in data set [2] is reported as “+++”.

Take `COc1cc2c(cc1OC)[C@H]1C[C@@H](COC(=O)C3CC3C(=O)O)[C@H](CC(C)C)CN1CC2` (stereo partly drawn) [Compound 3-4, 2-({[(2R,3S,11bR)-9,10-dimethoxy-3-(2-methylpropyl)-1H,2H,3H,4H,6H,7H,11bH-pyrido[2,1-a]isoquinolin-2-yl]methoxy}carbonyl)cyclopropane-1-carboxylic acid]: the Ki in data set [1] lay in the range of 10 to 500 nM. In data set [2], the “S9 Assay (ability to form compound 1-1)” value is “++”.

As to `COc1cc2c(cc1OC)[C@H]1C[C@@H](COC(=O)C3CCCCC3C(=O)O)[C@H](CC(C)C)CN1CC2` (stereo partly drawn) [Compound 3-6, 2-({[(2R,3S,11bR)-9,10-dimethoxy-3-(2-methylpropyl)-1H,2H,3H,4H,6H,7H,11bH-pyrido[2,1-a]isoquinolin-2-yl]methoxy}carbonyl)cyclohexane-1-carboxylic acid], the Ki in data set [1] was in the range of 10 to 500 nM. The “S9 Assay (ability to form compound 1-1)” value in data set [2] is listed as “++”.

`COc1cc2c(cc1OC)[C@H]1CC(COC(=O)CC(C)(C)C(=O)O)[C@H](CC(C)C)CN1CC2` (stereo partly drawn) [Compound 3-7, 4-{[(3S,11bR)-9,10-dimethoxy-3-(2-methylpropyl)-1H,2H,3H,4H,6H,7H,11bH-pyrido[2,1-a]isoquinolin-2-yl]methoxy}-2,2-dimethyl-4-oxobutanoic acid] showed a Ki in data set [1] of 10 to 500 nM. Also, the “S9 Assay (ability to form compound 1-1)” value in data set [2] is listed as “+”.

`COc1cc2c(cc1OC)[C@H]1C[C@@H](COC(=O)CCCC(=O)O)[C@H](CC(C)C)CN1CC2` [Compound 3-8, 5-{[(2R,3S,11bR)-9,10-dimethoxy-3-(2-methylpropyl)-1H,2H,3H,4H,6H,7H,11 bH-pyrido[2,1 a]isoquinolin-2-yl]methoxy}-5-oxopentanoic acid] displayed an inhibition constant Ki in data set [1] of 10 to 500 nM. Besides, the “S9 Assay (ability to form compound 1-1)” value in data set [2] is listed as “+++”.

As to `COc1cc2c(cc1OC)[C@H]1C[C@@H](COC(=O)CC3(CC(=O)O)CCCC3)[C@H](CC(C)C)CN1CC2` [Compound 3-9], the inhibitory constant (Ki) in data set [1] lay within 10 to 500 nM. Also, in data set [2], the “S9 Assay (ability to form compound 1-1)” value is “++”.

For the compound `COc1cc2c(cc1OC)[C@H]1C[C@@H](COC(=O)CCCCC(=O)O)[C@H](CC(C)C)CN1CC2` [Compound 3-10], the Ki in data set [1] is greater than 500 nM. The “S9 Assay (ability to form compound 1-1)” value in data set [2] is given as “+++”.

`COc1cc2c(cc1OC)[C@H]1C[C@@H](COC(=O)C(C)(C)CC(=O)O)[C@H](CC(C)C)CN1CC2` [Compound 3-11] returned a Ki in data set [1] greater than 500 nM. Besides, the “S9 Assay (ability to form compound 1-1)” value in data set [2] is “++”.

For the compound `COc1cc2c(cc1OC)[C@H]1C[C@@H](COC(=O)CCC(C)(C)C(=O)O)[C@H](CC(C)C)CN1CC2` [Compound 3-12], in data set [1], the Ki is 10 to 500 nM. Moreover, in data set [2], the “S9 Assay (ability to form compound 1-1)” value is on record as “+++”.

`COc1cc2c(cc1OC)[C@H]1C[C@@H](COC(=O)CCC(=O)O)[C@H](CC(C)C)CN1CC2` [Compound 3-13] had a Ki in data set [1] of 10 to 500 nM. Further, the “S9 Assay (ability to form compound 1-1)” value in data set [2] is reported as “++”.

Take `COc1cc2c(cc1OC)[C@H]1C[C@@H](COC(=O)C3CCNCC3)[C@H](CC(C)C)CN1CC2` [Compound 4-1, [(2R,3S,11bR)-9,10-dimethoxy-3-(2-methylpropyl)-1H,2H,3H,4H,6H,7H,11bH-pyrido[2,1-a]isoquinolin-2-yl]methyl piperidine-4-carboxylate]: the inhibition constant Ki in data set [1] is less than 10 nM. Further, the “S9 Assay (ability to form compound 1-1)” value in data set [2] is given as “++”.

In the case of `COc1cc2c(cc1OC)[C@H]1C[C@@H](COC(=O)[C@H]3CCNC3)[C@H](CC(C)C)CN1CC2` [Compound 4-7, [(2R,3S,11bR)-9,10-dimethoxy-3-(2-methylpropyl)-1H,2H,3H,4H,6H,7H,11bH-pyrido[2,1-a]isoquinolin-2-yl]methyl (3S)-pyrrolidine-3-carboxylate], the inhibitory constant (Ki) in data set [1] is less than 10 nM. In addition, the “S9 Assay (ability to form compound 1-1)” value in data set [2] is “++”.

Take `COc1cc2c(cc1OC)[C@H]1C[C@@H](COC(=O)C3CCNC3)[C@H](CC(C)C)CN1CC2` (stereo partly drawn) [Compound 4-8, [(2R,3S,11bR)-9,10-dimethoxy-3-(2-methylpropyl)-1H,2H,3H,4H,6H,7H,11bH-pyrido[2,1-a]isoquinolin-2-yl]methyl pyrrolidine-3-carboxylate]: in data set [1], the inhibition constant (Ki) was less than 10 nM. Besides, in data set [2], the “S9 Assay (ability to form compound 1-1)” value is on record as “++”.

In turn, `COc1cc2c(cc1OC)[C@H]1C[C@@H](COC(=O)CC3CCCNC3)[C@H](CC(C)C)CN1CC2` (stereo partly drawn) [Compound 4-10, [(2R,3S,11bR)-9,10-dimethoxy-3-(2-methylpropyl)-1H,2H,3H,4H,6H,7H,11bH-pyrido[2,1-a]isoquinolin-2-yl]methyl 2-(piperidin-3-yl)acetate] showed an inhibition constant (Ki) in data set [1] of less than 10 nM. In addition, in data set [2], the “S9 Assay (ability to form compound 1-1)” value is given as “++”.

In the case of `COc1cc2c(cc1OC)[C@H]1C[C@@H](COC(=O)[C@H]3CCCNC3)[C@H](CC(C)C)CN1CC2` [Compound 4-13, [(2R,3S,11bR)-9,10-dimethoxy-3-(2-methylpropyl)-1H,2H,3H,4H,6H,7H,11bH-pyrido[2,1-a]isoquinolin-2-yl]methyl (3S)-piperidine-3-carboxylate], the inhibition constant (Ki) in data set [1] is less than 10 nM. In data set [2], the “S9 Assay (ability to form compound 1-1)” value is reported as “+++”.

In data set [1], `COc1cc2c(cc1OC)[C@H]1C[C@@H](COC(=O)C3CCNCC3C)[C@H](CC(C)C)CN1CC2` (stereo partly drawn) [Compound 4-15, [(2R,3S,11bR)-9,10-dimethoxy-3-(2-methylpropyl)-1H,2H,3H,4H,6H,7H,11bH-pyrido[2,1-a]isoquinolin-2-yl]methyl 3-methylpiperidine-4-carboxylate] showed a Ki of less than 10 nM. In addition, the “S9 Assay (ability to form compound 1-1)” value in data set [2] is on record as “+”.

As for `COc1cc2c(cc1OC)[C@H]1C[C@@H](COC(=O)CC3CCNC3)[C@H](CC(C)C)CN1CC2` (stereo partly drawn) [Compound 4-16, [(2R,3S,11bR)-9,10-dimethoxy-3-(2-methylpropyl)-1H,2H,3H,4H,6H,7H,11bH-pyrido[2,1-a]isoquinolin-2-yl]methyl 2-(pyrrolidin-3-yl)acetate], the inhibition constant Ki in data set [1] was less than 10 nM. The “S9 Assay (ability to form compound 1-1)” value in data set [2] is on record as “+”.

`COc1cc2c(cc1OC)[C@H]1C[C@@H](COC(=O)C3(OC)CCNCC3)[C@H](CC(C)C)CN1CC2` [Compound 4-22, [(2R,3S,11bR)-9,10-dimethoxy-3-(2-methylpropyl)-1H,2H,3H,4H,6H,7H,11bH-pyrido[2,1-a]isoquinolin-2-yl]methyl 4-methoxypiperidine-4-carboxylate] had a Ki in data set [1] of less than 10 nM. The “S9 Assay (ability to form compound 1-1)” value in data set [2] is given as “++”.

For the compound `COc1cc2c(cc1OC)[C@H]1C[C@@H](COC(=O)[C@@H]3CCNC3)[C@H](CC(C)C)CN1CC2` [Compound 4-26, [(2R,3S,11bR)-9,10-dimethoxy-3-(2-methylpropyl)-1H,2H,3H,4H,6H,7H,11bH-pyrido[2,1-a]isoquinolin-2-yl]methyl (3R)-pyrrolidine-3-carboxylate], the Ki in data set [1] is less than 10 nM. In addition, in data set [2], the “S9 Assay (ability to form compound 1-1)” value is on record as “++”.

Turning to `COc1cc2c(cc1OC)[C@H]1C[C@@H](COC(=O)CC3CCCN3)[C@H](CC(C)C)CN1CC2` (stereo partly drawn) [Compound 4-28, [(2R,3S,11bR)-9,10-dimethoxy-3-(2-methylpropyl)-1H,2H,3H,4H,6H,7H,11bH-pyrido[2,1-a]isoquinolin-2-yl]methyl 2-(pyrrolidin-2-yl)acetate], in data set [1], the inhibition constant (Ki) is less than 10 nM. Further, the “S9 Assay (ability to form compound 1-1)” value in data set [2] is “++”.

`COc1cc2c(cc1OC)[C@H]1C[C@@H](COC(=O)[C@@H]3CCCNC3)[C@H](CC(C)C)CN1CC2` [Compound 4-29, [(2R,3S,11bR)-9,10-dimethoxy-3-(2-methylpropyl)-1H,2H,3H,4H,6H,7H,11bH-pyrido[2,1-a]isoquinolin-2-yl]methyl (3R)-piperidine-3-carboxylate] gave a Ki in data set [1] of less than 10 nM. Moreover, in data set [2], the “S9 Assay (ability to form compound 1-1)” value is recorded as “+++”.

With `COc1cc2c(cc1OC)[C@H]1C[C@@H](COC(=O)CCCN)[C@H](CC(C)C)CN1CC2` [Compound 4-31, [(2R,3S,11bR)-9,10-dimethoxy-3-(2-methylpropyl)-1H,2H,3H,4H,6H,7H,11bH-pyrido[2,1-a]isoquinolin-2-yl]methyl 4-aminobutanoate], the inhibition constant (Ki) in data set [1] was less than 10 nM. The “S9 Assay (ability to form compound 1-1)” value in data set [2] is on record as “++”.

Compound `COc1cc2c(cc1OC)[C@H]1C[C@@H](COC(=O)C[C@@H]3CCCN3)[C@H](CC(C)C)CN1CC2` [Compound 4-36] returned a Ki in data set [1] of less than 10 nM. Besides, the “S9 Assay (ability to form compound 1-1)” value in data set [2] is recorded as “+++”.

In the case of `COc1cc2c(cc1OC)[C@H]1C[C@@H](COC(=O)C[C@H]3CCNC3)[C@H](CC(C)C)CN1CC2` [Compound 4-38, [(2R,3S,11bR)-9,10-dimethoxy-3-(2-methylpropyl)-1H,2H,3H,4H,6H,7H,11bH-pyrido[2,1-a]isoquinolin-2-yl]methyl 2-[(3R)-pyrrolidin-3-yl]acetate], the Ki in data set [1] was less than 10 nM. In addition, the “S9 Assay (ability to form compound 1-1)” value in data set [2] was “+”.

`COc1cc2c(cc1OC)[C@H]1C[C@@H](COC(=O)NCCC(=O)O)[C@H](CC(C)C)CN1CC2` [Compound 5-1, 3-[({[(2R,3S,11bR)-9,10-dimethoxy-3-(2-methylpropyl)-1H,2H,3H,4H,6H,7H,11bH-pyrido[2,1-a]isoquinolin-2-yl]methoxy}carbonyl)amino]propanoic acid] had a Ki in data set [1] of less than 10 nM. Also, in data set [2], the “S9 Assay (ability to form compound 1-1)” value is recorded as “+”.
